Experimental data taken from patent US20060276464A1, “Diarylsulfone sulfonamides and use thereof” (Wyeth, priority 2005, published 2006).
Like-named read-outs stand apart in the source and are kept apart here.

Key:
[1] = target: T1, SFRP-1 (Homo sapiens, UniProt Q8N474); assay: Fluorescence polarization binding assay (competitive displacement of a probe compound from SFRP-1); settings: fluorescence anisotropy, 45 nM SFRP-1, 20 nM probe;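 also: test compound competes with a fluorescent probe held by SFRP-1, seen as a drop in probe anisotropy after incubation in darkness, with anisotropy as function of rising compound dose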
T1 sequence (Q8N474 32-314): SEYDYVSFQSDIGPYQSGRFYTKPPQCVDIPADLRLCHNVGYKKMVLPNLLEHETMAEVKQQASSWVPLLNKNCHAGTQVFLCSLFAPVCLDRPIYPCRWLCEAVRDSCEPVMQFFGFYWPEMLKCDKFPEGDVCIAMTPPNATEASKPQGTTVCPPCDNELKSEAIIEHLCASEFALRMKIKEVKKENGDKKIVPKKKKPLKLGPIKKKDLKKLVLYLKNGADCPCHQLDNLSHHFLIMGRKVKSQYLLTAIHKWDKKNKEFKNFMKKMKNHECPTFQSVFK

[2] = target: T1, SFRP-1; assay: Cell-based assay for in vitro measurement of SFRP-1/SARP2 antagonist activity (U2OS cells co-transfected with 16x TCF-tk-Luciferase reporter, Wnt and hSFRP-1); settings: U2OS;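 also: U2OS cells co-transfected with a TCF-tk luciferase reporter, a Wnt vector, hSFRP-1 or empty vector and CMV-βgal, luciferase luminescence read in cell lysates alongside βgal activity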
[3] = read-out: Fold Induction with SFRP-1, Conc 15 μM, with SFRP-1, fold induction over SFRP-1 control, single dose
[4] = read-out: Fold Induction without SFRP-1, Conc 15 μM, without SFRP-1, single dose

Row | IC50 [1] | fold induction at 15 µM [2, 3] | fold induction at 15 µM [2, 4] | SMILES
1 | 1.3 µM | 2.3 | 1.2 | CCc1ccc(S(=O)(=O)c2ccc(C)c(S(=O)(=O)NCCc3ccccn3)c2)cc1 [Example 418, 5-[(4-ethylphenyl)sulfonyl]-2-methyl-N-(2-pyridin-2-ylethyl)benzenesulfonamide]
2 | 8 µM | 2.4 | 1.3 | CCOc1ccccc1S(=O)(=O)c1ccc(C)c(S(=O)(=O)NCCc2ccccn2)c1 [Example 420, 5-[(2-ethoxyphenyl)sulfonyl]-2-methyl-N-(2-pyridin-2-ylethyl)benzenesulfonamide]
3 | 9 µM | 2.2 | 1.2 | COc1ccc(OC)c(S(=O)(=O)c2ccc(C)c(S(=O)(=O)NCCc3ccccn3)c2)c1 [Example 421, 5-[(2,5-dimethoxyphenyl)sulfonyl]-2-methyl-N-(2-pyridin-2-ylethyl)benzenesulfonamide]
4 | 2.8 µM | 1.9 | 1.2 | COc1cccc(S(=O)(=O)c2ccc(C)c(S(=O)(=O)NCCc3ccccn3)c2)c1OC [Example 422, 5-[(2,3-dimethoxyphenyl)sulfonyl]-2-methyl-N-(2-pyridin-2-ylethyl)benzenesulfonamide]
5 | 10 µM | 2.4 | 1.1 | COc1ccc(S(=O)(=O)c2ccc(C)c(S(=O)(=O)NCCc3ccccn3)c2)c(OC)c1 [Example 423, 5-[(2,4-dimethoxyphenyl)sulfonyl]-2-methyl-N-(2-pyridin-2-ylethyl)benzenesulfonamide]
6 | 2.8 µM | 2.5 | 1.2 | CCOC(=O)N1CCC(NS(=O)(=O)c2cc(S(=O)(=O)c3ccccc3)ccc2C)CC1 [Example 425, ethyl 4-({[2-methyl-5-(phenylsulfonyl)phenyl]sulfonyl}amino)piperidine-1-carboxylate]
7 | 1.1 µM | 2 | 0.9 | Cc1ccc(S(=O)(=O)c2ccc3[nH]ccc3c2)cc1S(=O)(=O)NCCc1ccccn1 [Example 427, 5-(1H-indol-5-ylsulfonyl)-2-methyl-N-(2-pyridin-2-ylethyl)benzenesulfonamide]

More lines, now with the values behind:

Row | SMILES | IC50 [1] | fold induction at 15 µM [2, 3] | fold induction at 15 µM [2, 4]
8 | CCc1ccc(S(=O)(=O)c2ccc(F)cc2)cc1S(=O)(=O)NC(C)C(O)c1ccccc1 (stereo not drawn) [Example 392, 2-ethyl-5-[(4-fluorophenyl)sulfonyl]-N-[(trans)-2-hydroxy-1-methyl-2-phenylethyl]benzenesulfonamide] | 4 µM | 2.8 | 1
9 | Cc1ccc(S(=O)(=O)c2ccccc2)cc1S(=O)(=O)NC1CCC1 [Example 398, N-cyclobutyl-2-methyl-5-(phenylsulfonyl)benzenesulfonamide] | 9 µM | 2.6 | 1.2
10 | Cc1ccc(S(=O)(=O)c2ccccc2)cc1S(=O)(=O)NC1CCCC1 [Example 399, N-cyclopentyl-2-methyl-5-(phenylsulfonyl)benzenesulfonamide] | 3 µM | 2.5 | 1.1
11 | C/C(=N\O)c1ccc(S(=O)(=O)c2ccc(C)c(S(=O)(=O)NC3CCOCC3)c2)cc1 [Example 402, 5-({4-[(1E)-N-hydroxyethanimidoyl]phenyl}sulfonyl)-2-methyl-N-(tetrahydro-2H-pyran-4-yl)benzenesulfonamide] | 2.6 µM | 2.5 | 1.1
12 | Cc1ccc(S(=O)(=O)c2ccccc2)cc1S(=O)(=O)NC1CCN(Cc2ccccc2)CC1 [Example 413, N-(1-benzylpiperidin-4-yl)-2-methyl-5-(phenylsulfonyl)benzenesulfonamide] | 5 µM | 2.2 | 1.4
